According to patent US7304083B2, “2-iminoimidazole derivatives (2)” (Eisai R&D Management Co., Ltd., priority 2001, dated 2007):
Structures can show the parent of a compound that is named as a salt.

Experiments:
[1] = test system: Vascular smooth muscle cells (rSMC); assay: Rat smooth muscle cell proliferation assay (thrombin-stimulated, MTT); assay type: cell-based; conditions: 48 h; male SD rat aorta rSMC, thrombin 0.1 unit/ml, 2 days, MTT OD 590 nm; read-out: Rat SMC IC50
Description: [Rat Smooth Muscle Cell Proliferation Assay]
Vascular smooth muscle cells (rSMC) were isolated from male SD rat aorta by the explant method. DMEM medium (Sigma) containing 10% fetal bovine serum (GibcoBRL), streptomycin and penicillin was used as the proliferation medium, and subculture was carried out at 37° C. in the presence of 5% CO2. Culture was initiated after adding 100 μl of rSMC suspension in proliferation medium at a concentration of 1×10^4 cells/ml, to a 96-well plate. After 3 days, cells were rinsed twice with 100 μl of DMEM medium, the medium was exchanged with 100 μl of DMEM medium containing 0.1% albumin (starvation medium), and serum starvation was initiated. […]
Upon adding 20 μl of MTT (3-[4,5-dimethylthiazol-2-yl]-2,5-diphenyltetrazolium bromide) dissolved in DPBS to 7.5 mg/ml, incubation was continued for 4 hours. […] As an index of cell proliferation, the OD 590 nm was measured using a plate reader (EL340, BIO-TEK Instruments Inc.), and the control OD value (OD value in the absence of the test compound) minus the OD value in the presence of the test compound was divided by the control OD value minus the blank OD value (OD value without thrombin stimulation) to determine the inhibition ratio, from which the IC50 value was calculated.

PAR1 thrombin receptor = target: T1, PAR1 thrombin receptor (Homo sapiens, UniProt P25116); assay: Receptor binding assay ([3H] high affinity TRAP, platelet membrane); conditions: 25 nM [3H] high affinity TRAP, 37° C. for 1 hour, read-out: RBA IC50
T1 construct: centrifuged at 40,000 g for 60 minutes to yield platelet membrane; from tissue; host or cells: platelet membrane prepared from platelet rich plasma of a healthy adult donor
T1 sequence (P25116 22-425): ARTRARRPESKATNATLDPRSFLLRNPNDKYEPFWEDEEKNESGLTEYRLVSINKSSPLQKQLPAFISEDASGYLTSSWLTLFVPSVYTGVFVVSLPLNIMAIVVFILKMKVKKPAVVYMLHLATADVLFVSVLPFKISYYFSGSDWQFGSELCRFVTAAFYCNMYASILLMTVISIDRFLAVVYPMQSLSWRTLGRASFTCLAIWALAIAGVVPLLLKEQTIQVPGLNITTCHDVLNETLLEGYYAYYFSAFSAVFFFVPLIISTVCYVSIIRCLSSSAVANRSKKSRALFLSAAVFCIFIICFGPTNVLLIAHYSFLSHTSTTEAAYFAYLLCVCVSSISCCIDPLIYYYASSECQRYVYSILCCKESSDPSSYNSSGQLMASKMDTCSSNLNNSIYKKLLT
Description: Blood was sampled from a healthy adult who had taken no drugs for one week, and 3.8% citric acid (a ratio of 1:9 with respect to the blood) was added as an anticoagulant. The mixture was then centrifuged at 100 g for 10 minutes at room temperature to yield platelet rich plasma (PRP). The platelet precipitate obtained by centrifuging the PRP was homogenized with a Dounce homogenizer, and then centrifuged at 40,000 g for 60 minutes to yield platelet membrane. The platelet membrane was suspended in a solution prepared by adding DMSO (dimethyl sulfoxide) at 1% concentration to Buffer 1: a 50 mM Tris-HCl buffer containing 10 mM MgCl2 and 1 mM EGTA (ethylene glycol tetraacetic acid), and the suspension was stored at −80° C. Bovine albumin and DMSO were added to Buffer 1 at 0.1% and 20%, respectively, to make a preparation solution for the test compound. […] Next, 30 μl of liquid scintillator was added for measurement of the radioactivity of the plate using a Top Counter (Packard), the value of the radioactivity in the presence of the test compound minus non-specific binding portion was divided by the specific binding value (the value of the binding in the absence of the compound minus the non-specific binding portion) to determine the binding ratio, from which the IC50 value was calculated. […]

[2] = test system: platelet rich plasma (PRP); assay: Inhibitory effects on platelet aggregation using platelet rich plasma (thrombin-induced); assay type: cell-based; conditions: Homo sapiens, 0.1 h, aggregation initiated with thrombin 0.5–1.5 units/ml, area under aggregation curve over 6 minutes, read-out: Thr IC50
Description: [Inhibitory Effects on Platelet Aggregation Using Platelet Rich Plasma]
Blood was sampled from a healthy adult who had taken no drugs for one week, and 3.8% citric acid (a ratio of 1:9 with respect to the blood) was added as an anticoagulant. The mixture was then centrifuged at 100 g for 10 minutes at room temperature to yield platelet rich plasma (PRP). The PRP-removed blood was further centrifuged at 1000 g for 10 minutes to yield platelet poor plasma (PPP). The number of platelet was counted using a multi-parameter automatic hemocyte counter (K4500, Sysmex), and the PRP was diluted to approximately 300,000/μl with the PPP. The platelet aggregation activity was determined in the following manner using an Aggregometer (MC Medical). […] After addition of thrombin, the aggregation reaction was examined for 6 minutes and the areas under the aggregation curves were compared to determine the inhibition ratio, from which the IC50 value was calculated.

Compound | IC50 [1] [µM] | IC50 (PAR1 thrombin receptor) [µM] | IC50 [2] [µM]
CCC(CC)CCn1ccn(CC(=O)c2cc(C(C)(C)C)c(O)c(C(C)(C)C)c2)c1=N [Example 1, 1-(3,5-Di-tert-butyl-4-hydroxy-phenyl)-2-[3-(3-ethyl-pentyl)-2-imino-2,3-dihydro-imidazol-1-yl]-ethanone hydrobromide] | 0.3 | 0.074 | 0.54
CC(C)(C)c1cc(C(=O)Cn2ccn(Cc3ccccc3)c2=N)cc(C(C)(C)C)c1O [Example 2, 2-(3-Benzyl-2-imino-2,3-dihydro-imidazol-1-yl)-1-(3,5-di-tert-butyl-4-hydroxy-phenyl)-ethanone hydrobromide] | 0.96 | 0.25 | 2.4
